Assay results from article PMC10716148 (Scientific Reports, 2023).
Entries after “also recorded” stand apart in the source; their conditions may differ.

Experiments:
[1] = test system: B16F10 melanoma cells; assay: Cytotoxicity assay (MTT) in B16F10 cells; type: cell-based, Murine; conditions: for Cytotoxicity: B16F10 melanoma cells, 72 h
Procedure: (§1) Murine melanoma B16F10 cells (obtained from DS Pharma Biomedical, Japan) were cultivated in Dulbecco's Modified Eagle Medium (DMEM), a liquid medium supplemented with 10% fetal bovine serum (FBS) and 1% penicillin/streptomycin. The cells were incubated at a temperature of 37 °C within a controlled humidified environment containing 5% CO2. To facilitate subculture, the cells were detached from the culture flask using trypsin solution. Subsequently, the cells were subjected to staining with trypan blue solution and quantified using a hemocytometer for further analysis. The final concentration of DMSO was 0.1% for all experiments.
Cytotoxicity was assessed through the utilization of the MTT assay. The cell culture was initiated in 24-well plates, with a seeding density of 5 × 10^4 cells per well. After treatment with samples for 72 h, 10 µL of MTT solution (5 mg/mL in PBS) were added to each well and incubated for additional 3 h. Then, supernatant was removed and DMSO (250 µL) was added to dissolve the formed formazan crystals. The absorbance was measured at 570 nm using a microplate reader. Cells treated solely with DMSO served as the control. All experiments were conducted in triplicate. The percentage of cell viability was determined using the following calculation: %Cellviability=Abstreated cells-Absblank of treated cells/Abscontrol-Absblank of control×100

[2] = Accelerated stability test, chemical stability by HPLC; type: physicochemical; conditions: for remaining at 720 h: cosmetic formulation F1, after 30 days (1 month) at 45 °C
[3] = test system: B16F10 melanoma cells; assay: Anti-melanogenic assay (melanin content) in B16F10 cells; type: cell-based, Murine; conditions: mean ± SD (n = 3)
Procedure: as §1
Murine melanoma B16F10 cells were gently rinsed with phosphate-buffered saline (PBS) and detached from the cell tissue culture dish using trypsin. The cells were subsequently seeded in 24-well culture plates at a density of 5 × 10^4 cells per well and allowed to incubate for 24 h before being subjected to treatment with the experimental samples. Arbutin was used as a positive control. Following the treatment, the cells were further incubated for an additional 72 h, and the absorbance was measured at 510 nm using a microplate reader. Melanin production was expressed as a percentage relative to the control cells treated with DMSO. All experiments were conducted in triplicate. The IC50 value was calculated. The percentage of total melanin content was determined using the following equation: %Totalmelanincontent=Abstreated cells-Absblank of treated cells/Abscontrol-Absblank of control×100

[4] = test system: melanocytes; parameters: method as in Tang et al. [15]; conditions: ref Tang et al. [15]; cited from earlier work
[5] = Mus musculus, B16-F10, 72 h treatment

In the case of `OC[C@H]1O[C@@H](Oc2ccc(O)cc2)[C@H](O)[C@@H](O)[C@@H]1O` [Arbutin], the Cytotoxicity [1] is reported as over 1000 µM, the “Content in formulation F1” value ([2]; Day 1, HPLC) is reported as 0.1991 ± 0.0004 %w/w and the “Content in formulation F1” value ([2]; Day 30, 45 °C, HPLC) is reported as 0.1940 ± 0.0057 %w/w. The “%Remaining in formulation F1” value ([2]; after 30 days (1 month) at 45 °C) was 97.44%, the remaining at 720 h [2] was over 90% and the IC50 [3, 5] was 807.6 ± 2.9 µM.

In the case of `C[C@@H]1O[C@@H](Oc2cc(O)c3c(=O)c(O)c(-c4ccc(O)cc4)oc3c2)[C@H](O)[C@H](O)[C@H]1O` [Compound 3, kaempferol-7-O-α-L-rhamnopyranoside], the “Cytotoxicity (in words)” value ([1]; B16F10 cells, b13: 72 h, concentrations as high as 1000 µM) is reported as “absence of discernible cytotoxicity; also recorded: no significant toxicity was observed”, the Cytotoxicity [1] is reported as over 1000 µM and the “Content in formulation F1” value ([2]; Day 1, HPLC) is reported as 0.0050 ± 0.0005 %w/w. The “Content in formulation F1” value ([2]; Day 30, 45 °C, HPLC) was 0.0048 ± 0.0003 %w/w, the remaining at 720 h [2] was over 90% and the IC50 [3, 5] was 23 ± 1.3 µM.

`CC1OC(Oc2cc(O)c3c(=O)c(OC4OC(CO)C(O)C(O)C4O)c(-c4ccc(O)cc4)oc3c2)C(O)C(O)C1O` [Compound 4, kaempferol-3-O-β-D-glucopyranosyl-7-O-α-L-rhamnopyranoside] gave a Cytotoxicity [1] of over 1000 µM and an IC50 [3, 5] of over 200 µM.

In the case of `O=c1c(O)c(-c2ccc(O)cc2)oc2cc(O)cc(O)c12` [kaempferol], the “Effect on melanin production and melanocyte growth” value [4] is given as “induce melanin production and melanocyte growth”.

In the case of Quercetin-3-O-rhamnoside [Compound 1], the IC50 ([3]; 72 h treatment) is reported as 135 ± 2.1 µM.
